For data set [1], the system named is SK-BR-3, human breast cancer cell strain. The data set can be described thus: IC50 test on tumor cells (MTT), SK-BR-3. Particulars: SK-BR-3, MTT, 48 h, read-out: Half Inhibitory concentrations (IC50) on human tumor cell strain growth. Type of data set: cell-based. As to the method:
(§1) The melonines A, B, C and D as prepared in Example 1 were separately dissolved with dimethyl sulfoxide (DMSO) to form 1 mg/ml storage solutions, stored away from light for standby use.
(§2) Cisplatin was used as positive control.
(§3) (1) Inoculating cells: preparing cell suspension with culture medium comprising 10% fetal bovine serum (DMEM or RMPI1640), inoculating 96 wells plate with 10000-20000 cells per well (100 μl per well); if adherent cells are needed, inoculation and culture will be conducted 12 h in advance.
(§4) (2) adding a solution of compound to be tested (compound monomer of fixed concentration 40 μM for primary screening, crude extract of 100 μg/ml for primary screening, setting 5 concentrations for gradient repetitive screening for those compounds with a tumor cell growth inhibition rate of about 50% at the concentration for primary screening), final volume of 200 μl per well, and setting 3 repetitive wells for each treatment.
(§5) (3) Developing: culturing at 37° C. for 48 h, adding 20 μl of MTT solution to each well, continually incubating for 4 h, terminating cultivation, carefully discarding supernatant 100 μl to avoid cell lose, adding 20% SDS 100 μl to each well, incubating overnight (37° C.) to completely dissolve crystal.
(§6) (4) colorimetric analysis: selecting 595 nm wavelength, reading light absorption value of each well by […] (Bio-Rad 680), recording results, plotting cell growth curve using concentration as abscissa and cell survival rate as ordinate, and calculating IC50 value of compound using Reed and Muench method.
(§7) (5) Positive control: cisplatin.

Data set [2] has as its system SMMC7721, human liver cancer cell strain. Kind of data set: IC50 test on tumor cells (MTT), SMMC7721. Type of data set: cell-based. Particulars: read-out: Half Inhibitory concentrations (IC50) on human tumor cell strain growth. As to the method:
as §1, §2, §3, §4, §5, §6, §7

For data set [3], the system named is HL-60, human leukemic cell strain. Kind of data set: IC50 test on tumor cells (MTT), HL-60. It counts as cell-based. Particulars: HL-60, MTT, 48 h, read-out: Half Inhibitory concentrations (IC50) on human tumor cell strain growth. As to the method: as §1, §2, §3, §4, §5, §6, §7
The test system of data set [4] is PANC-1, human pancreatic cancer cell strain. The data set can be described thus: IC50 test on tumor cells (MTT), PANC-1. Particulars: PANC-1, MTT, 48 h, read-out: Half Inhibitory concentrations (IC50) on human tumor cell strain growth. It counts as cell-based. On the procedure:
as §1, §2, §3, §4, §5, §6, §7

The test system of data set [5] is A549, human lung cancer cell strain. Kind of data set: IC50 test on tumor cells (MTT), A549. Type of data set: cell-based. Particulars: 48 h, read-out: Half Inhibitory concentrations (IC50) on human tumor cell strain growth. On the procedure: as §1, §2, §3, §4, §5, §6, §7
Data set [6] is described as follows: Solubility (qualitative description). It counts as physicochemical.
The subject of data set [7] is human NCI-H460 nude mouse transplanted tumor. Kind of data set: Activity against nude mouse-transplanted tumors. Type of data set: in vivo, female BALB/cA nude mice. The conditions noted are these: 10 mg/kg intravenous, 3 times per week. On the procedure: (§8) Test animals: female BALB/cA nude mice, 35-40 days, body weight 18-22 g, provided by Shanghai Slack, certificate no.: SCXK (Hu) 2007-0005. Divided into four groups:
Negative control group: 12 mice (intravenous injection with physiological saline, 3 times per week).
(§9) Administration group 1: 6 mice, intravenously administered with melonine C, in a dose of 20 mg/kg, 3 times per week.
(§10) Administration group 2: 6 mice, intravenously administered with melonine C, in a dose of 10 mg/kg, 3 times per week.
(§11) Administration group 3: 6 mice, intravenously administered with melonine C, in a dose of 2 mg/kg, 3 times per week.
Transplanted tumors: human NCI-H460 nude mouse transplanted tumor, established by subcutaneously inoculating human NCI-H460 cell strain to female BALB/c nude mice (from Shanghai Slack Co., Ltd.). Inoculated cell number was 3×10^6, the formed transplanted tumor after inoculation was then passaged 3 times in body of nude mice before use. […]
The well-grown tumor tissues were cut into 1.5 mm^3 pieces, inoculated into right-side armpit subcutaneously under sterile condition. The nude mouse transplanted tumore diameter was measured by vernier caliper, and the animals were grouped randomly when the tumore grew to 100-300 mm^3. […]

Data set [8] can be described thus: Body weight of NCI-H460 tumor-bearing nude mice. It counts as in vivo, female BALB/cA nude mice. The conditions noted are these: 20, 10 and 2 mg/kg intravenous, 3 times per week. On the procedure: as §8, §9, §10, §11
The well-grown tumor tissues were cut into 1.5 mm^3 pieces, inoculated into right-side armpit subcutaneously under sterile condition. The nude mouse transplanted tumore diameter was measured by vernier caliper, and the animals were grouped randomly when the tumore grew to 100-300 mm^3. The antitumor effects of the compounds to be tested were observed by measuring tumor diameters. The number of measuring tumore diameters was 3 per week, and the mice were weighed simultaneously when each measurement was conducted. Melonine C was intravenously administered in doses of 20 mg/kg, 10 mg/kg, 2 mg/kg, separately, 3 times per week.

The nature of data set [9]: Acute toxicity test, mice. Particulars: mouse, in vivo, intravenous, tail vein injection. On the procedure: (§12) Animal lines: healthy mice, rats. Age was 7-9 weeks. In the same batch of tests, the initial body weight of mice or rats should not be greater or less than the average body weight by 20%.
(§13) Administration route: tail vein injection for both rats and mice.
(§14) Measurement of median lethal dose (LD50):
Maximum tolerated dose (MTD) test method: MTD refers to a dose that causes significant toxic reaction without death in animals.
(§15) Test observation: the observation was performed for one week after administered with the drug to be tested, the time of appearance and disappearance of various toxic reactions was carefully observed and recorded for each animal. The observation and recording were performed twice on the day of administering the drug to be tested, then once per day in the following days. The contents to be observed and recorded include skin, mucous membrane, coat color, eyes, respiration, circulation, behaviors of autonomic and central nervous systems, etc. Before the drug to be tested was administered, one week after the drug to be tested was administered, when the animal died, and when the test was ended, the animals were weighed to get their body weights. All animals, including dead or executed animals, were subjected to autopsy, and histopathologic examination was performed for organs with abnormal autopsy results.

Data set [10] in a line: Acute toxicity test, rats. The conditions noted are these: rat, in vivo, intravenous, tail vein injection. As to the method: as §12, §13, §14, §15
A short description of data set [11]: Acute toxicity test, observation and autopsy. Type of data set: in vivo. Particulars: tail vein injection, immediately after dosing. On the procedure: as §12, §13, §15

Usually LD50 stands for the dose at which mortality reaches 50%. A high value points to a less toxic substance. The term MTD denotes the largest dose that counted as tolerated.

Read-outs that look alike come from different tables or passages of the source.

Turning to `N.N.[Cl][Pt][Cl]` [Cisplatine, Cisplatin, reference compound], the IC50 stood at 22.5 µM in data set [1]; 14.1 µM in data set [2] (48 h); 0.75 µM in [3]; 19.5 µM in data set [4]; 26.5 µM in [5].

As to `CCC12CCCNC3=C(C(=O)C(=O)C=C3C3CC4(CC)CCCN5CCc6c(n3c3ccccc63)C54)C3=C1N(CCC2)CC3` (centres unmarked) [Melonine A, melonine A], the IC50 in data set [1] (Homo sapiens) is 15.4 µM; in data set [2] (Homo sapiens, SMMC-7721, 48 h), 11.5 µM; in data set [3] (Homo sapiens), 2.84 µM; in [4] (Homo sapiens), > 40 µM; in data set [5] (Homo sapiens), 22.1 µM. In data set [6], the solubility in acetone entry is reported as “Easily soluble”. Besides, the solubility in chloroform result in [6] (chloroform) was “Easily soluble”. The solubility in methanol entry in data set [6] is “Easily soluble”. In addition, in data set [6], the solubility in water entry is “slightly soluble”.

On to `CCC12CCCN3CCc4c(n(c5ccccc45)C(c4cc5c(cc4O)N4CCCC6(CC)CCCN7CCC5(OC)C746)C1)C32` (centres unmarked) [Melonine B, melonine B], for which the IC50 in [1] (Homo sapiens) was 7.78 µM; in data set [2] (Homo sapiens, SMMC-7721, 48 h), 7.4 µM; in data set [3] (Homo sapiens) it was 2.53 µM; in data set [4] (Homo sapiens) it was 14.5 µM; in [5] (Homo sapiens), 14.7 µM. Also, the solubility in acetone result in [6] was “slightly soluble”. Besides, the solubility in methanol entry in [6] was “Easily soluble”. The solubility in water entry in [6] is on record as “slightly soluble”.

In the case of `CCC12CCCN3CCc4c(n(c5ccccc45)C(c4ccc(O)c5c4NC4CCC6(CC)CCCN7CCC54C76)C1)C32` (centres unmarked) [Melonine C, melonine C], the IC50 in data set [1] (Homo sapiens) turned out to be 3.63 µM; in data set [2] (Homo sapiens, SMMC-7721, 48 h), 2.73 µM; in data set [3] (Homo sapiens) it was 0.66 µM; in [4] (Homo sapiens), 3.77 µM; in data set [5] (Homo sapiens) it was 3.01 µM. The “relative tumor proliferation rate T/C (%)” value in [7] was 56.41%. The “effect on the body weight” value in [8] was “no significant effect”. The median lethal dose (LD50) at 1 week in data set [9] (mice) came out at 32 mg/kg; in [10] it was 20 mg/kg. Besides, the maximum tolerated dose (MTD) at 1 week in data set [9] (printed on the mice line, read-out: MTD (maximum tolerated dose)) was found to be 22 mg/kg. For the same compound, in data set [11], the toxic reactions observed result is given as “accelerated breathing, ataxia, convulsions, or even died”. In data set [6], the solubility in acetone result is given as “slightly soluble”. Besides, in [6], the solubility in methanol result is listed as “easily soluble”. The solubility in water entry in data set [6] is given as “slightly soluble”.

In the case of `CCC12CCCN3CCc4c(n(c5ccccc45)C(c4ccc(O)c5c4N=C4CCC6(CC)CCCN7CCC45C76)C1)C32` (centres unmarked) [Melonine D, melonine D], the IC50 in data set [1] (Homo sapiens) worked out at 23.2 µM; in data set [2] (Homo sapiens, SMMC-7721, 48 h), 18.1 µM; in data set [3] (Homo sapiens), 2.77 µM; in data set [4] (Homo sapiens), 23.4 µM; in data set [5] (Homo sapiens) it was 11.1 µM. In addition, in data set [6], the solubility in acetone result is “slightly soluble”. The solubility in methanol result in data set [6] was “Easily soluble”. Further, the solubility in water result in data set [6] is “slightly soluble”.

(Values after patent US9163035B2, “Melonine bisindole compounds, pharmaceutical compositions, preparation method and use thereof” (Kunming Institute of Botany, The Chinese Academy of Sciences, priority 2009, dated 2015).)
